{"source": "paper PMC7071076", "about": "“Antibacterial Activity and Pharmacokinetic Profile of a Promising Antibacterial Agent: 22-(2-Amino-phenylsulfanyl)-22-Deoxypleuromutilin” (Molecules, 2020)", "key": {"MRSA ATCC 43300 [1]": {"test_system": "MRSA ATCC 43300", "experiment": "Postantibiotic effect (PAE)", "format": "cell-based, Staphylococcus aureus", "method": "The PAE was determined with previously methods. MRSA in logarithmic phase was diluted to 10^6 CFU/mL using MH broth as the inoculum. […] The group in which the drug was replaced by 0.9% saline was served as the control. All the samples were incubated at 37 °C for 1 and 2 h. At the end of incubation, the drug was removed by 1000-fold dilution with MH broth which was preheated at 37 °C. After well mixing, the broth was further cultured at 37 °C. 100 µL culture solution was extracted at different time intervals (0, 1, 2, 4, 6, and 8 h). Following a 10-fold dilution, colonies were counted after 20 h of incubation. The kinetic curve was established with the logarithm of the colony number as the ordinate and the time as the abscissa. The PAE was presented in hour and calculated by the equation PAE = TA − TC [40]. TA was defined as the culture time required for the number of MRSA to up to 1 log CFU/mL after the drug removal, and TC was the culture time required for the control group."}, "E. faecalis ATCC 29212": {"test_system": "E. faecalis ATCC 29212", "experiment": "MIC testing (broth dilution, 96-well plate)", "format": "cell-based", "settings": "Enterococcus faecalis, ATCC29212", "method": "(§1) The MIC of amphenmulin against MRSA, Escherichia coli, Salmonella typhimurium, Enterococcus faecalis, and Enterococcus faecium were determined using tiamulin as controls. MIC values were measured by the method of previous work. Staphylococcus aureus ATCC 29213 was used as the quality control bacteria, and the quality control range was referred to the Clinical and Laboratory Standards Institute (CLSI). The bacteria solution was diluted to ~10^6 CFU/mL with Mueller–Hinton (MH) broth for MRSA, Escherichia coli and Salmonella typhimurium while Trypticase Soy Broth for Enterococcus faecalis and Enterococcus faecium. Drugs were dissolved in an aqueous solution of N, N-dimethylformamide (DMF) at a concentration of 2560 µg/mL, and then diluted with broth to prepare working solution (1280 µg/mL). The drug susceptibility testing was performed in 96-well plate. A total of 20 µL of working solution was added into column 1 and well mixed as a 10-fold dilution, following which Serial 2-fold dilutions were prepared to provide concentration ranges of 128–0.0078 µg/mL. Blank broth (no cultures) and bacteria solution (drugs replaced by blank solvent) were set as drug-free controls. Each 96-well plate was cultured at 37 °C for 24 h. The MIC value is the lowest concentration of amphenmulin which inhibits the visible growth of bacteria. The experiment was repeated three times."}, "[2]": {"test_system": "S. typhimurium ATCC 14028", "experiment": "MIC testing (broth dilution, 96-well plate)", "format": "cell-based", "settings": "Salmonella enterica", "method": "as §1"}, "S. aureus ATCC 29213": {"test_system": "S. aureus ATCC 29213", "experiment": "MIC testing (broth dilution, 96-well plate)", "format": "cell-based", "settings": "Staphylococcus aureus, ATCC29213", "method": "as §1"}, "E. faecium ATCC 35667": {"test_system": "E. faecium ATCC 35667", "experiment": "MIC testing (broth dilution, 96-well plate)", "format": "cell-based", "settings": "Enterococcus faecium, ATCC35667", "method": "as §1"}, "E. coli ATCC 25922": {"test_system": "E. coli ATCC 25922", "experiment": "MIC testing (broth dilution, 96-well plate)", "format": "cell-based", "settings": "Escherichia coli, ATCC25922", "method": "as §1"}, "[3]": {"experiment": "Acute oral toxicity study", "settings": "both sexes, KM, mouse, in vivo, 5000 mg/kg; mice, oral (gavage), single dose", "method": "(§2) The acute toxicity test mainly referred to the previous reports with some modifications. Seven male and seven female KM mice in SPF grade were used for this study. Amphenmulin was formulated in DMSO and given in a single- dose at 5000 mg/kg by gavage, while the control group were given DMSO without drug. […] The median lethal dose (LD50) was calculated by modified Karber method on day 15. The experiment was repeated twice."}, "KM mice": {"test_system": "KM mice", "experiment": "Acute oral toxicity study", "settings": "mouse, in vivo, 5000 mg/kg", "method": "as §2"}, "MRSA N20": {"test_system": "MRSA N20", "experiment": "MIC testing, clinical strain", "format": "cell-based", "settings": "Staphylococcus aureus", "description": "(§3) Methicillin-resistant Staphylococcus aureus (MRSA) ATCC 43300, Staphylococcus aureus ATCC 29213, Escherichia coli ATCC 25922, Salmonella typhimurium ATCC 14028, Enterococcus faecalis ATCC 29212, and Enterococcus faecium ATCC 35667 were obtained from the China Institute of Veterinary Drug Control (Beijing, China). Five clinical strains of MRSA (N7, N9, N20, N30, and N54) were isolated from diseased pig tissues of South China Agricultural University and Foshan University Animal Hospital. All clinical strains were identified as MRSA by Gram stain, catalase reaction, coagulase test, staphylococcus API identification system test, MecA gene test, and methicillin MIC test.\nas §1"}, "MRSA N9": {"test_system": "MRSA N9", "experiment": "MIC testing, clinical strain", "format": "cell-based", "settings": "Staphylococcus aureus", "description": "as §3, §1"}, "MRSA N30": {"test_system": "MRSA N30", "experiment": "MIC testing, clinical strain", "format": "cell-based", "settings": "Staphylococcus aureus", "description": "as §3, §1"}, "MRSA N54": {"test_system": "MRSA N54", "experiment": "MIC testing, clinical strain", "format": "cell-based", "settings": "Staphylococcus aureus", "description": "as §3, §1"}, "MRSA": {"test_system": "MRSA", "experiment": "MIC against MRSA (summary over strains)", "format": "cell-based", "settings": "Staphylococcus aureus, range over strains, read-out: minimal inhibitory concentration", "method": "as §1"}, "MRSA ATCC 43300 [4]": {"test_system": "MRSA ATCC 43300", "experiment": "Constant concentration time-kill curves", "format": "cell-based, Staphylococcus aureus", "method": "Time–kill curve experiments were performed in triplicate according previous report. In this experiment, MRSA, in logarithmic phase, was diluted to 10^6 CFU/mL with MH broth. […] The mixtures and control which was free of drug were cultured at 37 °C with shaking. A total of 20 µL aliquots from solutions were serially diluted 10-fold in 0.9% saline, at different time intervals (0, 3, 6, 9, and 24 h). Then the dilutions were plated onto MH agar medium and incubated at 37 °C for 18–24 h. The bacterial colonies were counted, and results were represented as the logarithm of the colony numbers. The time-kill curve was constructed by plotting log CFU/mL versus time."}}}
{"smiles": "C=C[C@]1(C)C[C@@H](OC(=O)CSc2ccccc2N)[C@]2(C)[C@H](C)CC[C@]3(CCC(=O)[C@H]32)[C@@H](C)[C@@H]1O", "note": "[Amphenmulin, 22-(2-amino-phenylsulfanyl)-22-deoxypleuromutilin]", "values": [{"measurement": "PAE", "setting": "MRSA ATCC 43300 [1]; 1× MIC, exposure for 1 h", "value": 0.71, "unit": "h"}, {"measurement": "PAE", "setting": "MRSA ATCC 43300 [1]; 1× MIC, exposure for 2 h", "value": 1.35, "unit": "h"}, {"measurement": "PAE", "setting": "MRSA ATCC 43300 [1]; 4× MIC, exposure for 1 h", "value": 1.78, "unit": "h"}, {"measurement": "PAE", "setting": "MRSA ATCC 43300 [1]; 4× MIC, exposure for 2 h", "value": 2.83, "unit": "h"}, {"measurement": "MIC", "setting": "E. faecalis ATCC 29212", "value": "> 128", "unit": "µg/mL"}, {"measurement": "MIC", "setting": "[2]", "value": "> 128", "unit": "µg/mL"}, {"measurement": "MIC", "setting": "S. aureus ATCC 29213", "value": 0.0156, "unit": "µg/mL"}, {"measurement": "MIC", "setting": "E. faecium ATCC 35667", "value": 0.125, "unit": "µg/mL"}, {"measurement": "MIC", "setting": "E. coli ATCC 25922", "value": "> 128", "unit": "µg/mL"}, {"measurement": "LD50 at 14 days", "setting": "[3]", "value": "> 5000", "unit": "mg/kg"}, {"measurement": "mortality", "setting": "KM mice", "value": "No mice died"}, {"measurement": "abnormal symptoms", "setting": "KM mice; po", "value": "increase in the heart rate, excitement of some mice and inappetence"}, {"measurement": "MIC", "setting": "MRSA N20", "value": 4, "unit": "µg/mL"}, {"measurement": "MIC", "setting": "MRSA N9", "value": 0.0156, "unit": "µg/mL"}, {"measurement": "MIC", "setting": "MRSA N30", "value": 8, "unit": "µg/mL"}, {"measurement": "MIC", "setting": "MRSA N54", "value": 0.0156, "unit": "µg/mL"}, {"measurement": "MIC", "setting": "MRSA", "value": "0.0156 to 8", "unit": "µg/mL"}, {"measurement": "colony numbers of MRSA", "setting": "MRSA ATCC 43300 [4]; 0.5×MIC, 3 h", "value": "7.17±0.08", "unit": "log CFU/mL"}, {"measurement": "colony numbers of MRSA", "setting": "MRSA ATCC 43300 [4]; 0.5×MIC, 6 h", "value": "7.83±0.16", "unit": "log CFU/mL"}, {"measurement": "colony numbers of MRSA", "setting": "MRSA ATCC 43300 [4]; 0.5×MIC, 9 h", "value": "8.22±0.15", "unit": "log CFU/mL"}, {"measurement": "colony numbers of MRSA", "setting": "MRSA ATCC 43300 [4]; 0.5×MIC, 24 h", "value": "8.33±0.10", "unit": "log CFU/mL"}, {"measurement": "colony numbers of MRSA", "setting": "MRSA ATCC 43300 [4]; 1×MIC, 3 h", "value": "6.84±0.08", "unit": "log CFU/mL"}, {"measurement": "colony numbers of MRSA", "setting": "MRSA ATCC 43300 [4]; 1×MIC, 6 h", "value": "7.44±0.06", "unit": "log CFU/mL"}, {"measurement": "colony numbers of MRSA", "setting": "MRSA ATCC 43300 [4]; 1×MIC, 9 h", "value": "7.86±0.13", "unit": "log CFU/mL"}, {"measurement": "colony numbers of MRSA", "setting": "MRSA ATCC 43300 [4]; 1×MIC, 24 h", "value": "7.70±0.46", "unit": "log CFU/mL"}, {"measurement": "colony numbers of MRSA", "setting": "MRSA ATCC 43300 [4]; 2×MIC, 3 h", "value": "6.43±0.13", "unit": "log CFU/mL"}, {"measurement": "colony numbers of MRSA", "setting": "MRSA ATCC 43300 [4]; 2×MIC, 6 h", "value": "6.56±0.23", "unit": "log CFU/mL"}, {"measurement": "colony numbers of MRSA", "setting": "MRSA ATCC 43300 [4]; 2×MIC, 9 h", "value": "7.07±0.42", "unit": "log CFU/mL"}, {"measurement": "colony numbers of MRSA", "setting": "MRSA ATCC 43300 [4]; 2×MIC, 24 h", "value": "7.26±0.62", "unit": "log CFU/mL"}, {"measurement": "colony numbers of MRSA", "setting": "MRSA ATCC 43300 [4]; 4×MIC, 3 h", "value": "5.96±0.66", "unit": "log CFU/mL"}, {"measurement": "colony numbers of MRSA", "setting": "MRSA ATCC 43300 [4]; 4×MIC, 6 h", "value": "6.13±0.06", "unit": "log CFU/mL"}, {"measurement": "colony numbers of MRSA", "setting": "MRSA ATCC 43300 [4]; 4×MIC, 9 h", "value": "5.77±0.15", "unit": "log CFU/mL"}, {"measurement": "colony numbers of MRSA", "setting": "MRSA ATCC 43300 [4]; 4×MIC, 24 h", "value": "4.04±0.58", "unit": "log CFU/mL"}, {"measurement": "colony numbers of MRSA", "setting": "MRSA ATCC 43300 [4]; 8×MIC, 3 h", "value": "5.91±0.03", "unit": "log CFU/mL"}, {"measurement": "colony numbers of MRSA", "setting": "MRSA ATCC 43300 [4]; 8×MIC, 6 h", "value": "5.98±0.09", "unit": "log CFU/mL"}, {"measurement": "colony numbers of MRSA", "setting": "MRSA ATCC 43300 [4]; 8×MIC, 9 h", "value": "5.78±0.09", "unit": "log CFU/mL"}, {"measurement": "colony numbers of MRSA", "setting": "MRSA ATCC 43300 [4]; 8×MIC, 24 h", "value": "3.55±0.16", "unit": "log CFU/mL"}, {"measurement": "colony numbers of MRSA", "setting": "MRSA ATCC 43300 [4]; 16×MIC, 3 h", "value": "5.79±0.12", "unit": "log CFU/mL"}, {"measurement": "colony numbers of MRSA", "setting": "MRSA ATCC 43300 [4]; 16×MIC, 6 h", "value": "5.77±0.15", "unit": "log CFU/mL"}, {"measurement": "colony numbers of MRSA", "setting": "MRSA ATCC 43300 [4]; 16×MIC, 9 h", "value": "5.64±0.11", "unit": "log CFU/mL"}, {"measurement": "colony numbers of MRSA", "setting": "MRSA ATCC 43300 [4]; 16×MIC, 24 h", "value": "2.97±0.06", "unit": "log CFU/mL"}, {"measurement": "colony numbers of MRSA", "setting": "MRSA ATCC 43300 [4]; 32×MIC, 3 h", "value": "5.60±0.18", "unit": "log CFU/mL"}, {"measurement": "colony numbers of MRSA", "setting": "MRSA ATCC 43300 [4]; 32×MIC, 6 h", "value": "5.91±0.56", "unit": "log CFU/mL"}, {"measurement": "colony numbers of MRSA", "setting": "MRSA ATCC 43300 [4]; 32×MIC, 9 h", "value": "5.11±0.36", "unit": "log CFU/mL"}, {"measurement": "colony numbers of MRSA", "setting": "MRSA ATCC 43300 [4]; 32×MIC, 24 h", "value": "2.43±0.67", "unit": "log CFU/mL"}, {"measurement": "type of antibacterial activity in time-kill curve", "setting": "MRSA ATCC 43300 [4]; at the concentration of 4× MIC", "value": "bacteriostatic activity"}]}
